Results on 30 compounds are retold here after US20240246941A1, “SUBSTITUTED 4-(3-AMINOPROP-1-YL)AMINOQUINOLINE ANALOGS AS MODULATORS OF MELANOMA-ASSOCIATED ANTIGEN 11 UBIQUITIN LIGASE” (ST. JUDE CHILDREN'S RESEARCH HOSPITAL, INC., priority 2020, published 2024).

The target of one experiment is MAGE-A11:PCF11 (Homo sapiens (Human), UniProt P43364). Nature of the experiment: TR-FRET single point screening at 15 μM. It is filed as binding. Also noted: unit not given here. The note with it: single point TR-FRET screening at 15 μM against MAGE-A11:PCF11. A digest of the protocol: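 Single-point screen at 15 μM (0.25% DMSO) measuring disruption of GST-MAGEA11 (5 nM) binding to FAM-PCF11_4 peptide (200 nM) detected by Tb-anti-GST (5 nM). Buffer 50 mM Tris pH 7.5, 20 mM MgCl2, 0.1 mg/ml BSA, 1 mM DTT; 90 min at ~25 °C; 520/490 nm ratio converted to % inhibition versus controls.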
Chain of MAGE-A11:PCF11 (P43364 218-429): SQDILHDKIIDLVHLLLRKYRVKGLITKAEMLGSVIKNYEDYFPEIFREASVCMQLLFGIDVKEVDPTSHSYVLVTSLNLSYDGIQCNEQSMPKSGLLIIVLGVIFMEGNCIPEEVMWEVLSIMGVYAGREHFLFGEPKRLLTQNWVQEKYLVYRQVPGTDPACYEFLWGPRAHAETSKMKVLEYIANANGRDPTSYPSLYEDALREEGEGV
On to `COc1ccc2ncc(S(=O)(=O)c3ccc(C)cc3)c(N3CCN(c4ccc(F)cc4)CC3)c2c1` [SJ000117059], for which the TR-FRET signal is reported as −118.5.
With `COc1ccc2nc3cc(Cl)ccc3c(NCCCNCC3CCCCC3)c2c1` [SJ000361090], the TR-FRET signal is given as −411.2.
In turn, `Clc1ccc2c(NCCCCN(Cc3ccccc3)Cc3ccccn3)ccnc2c1` [SJ000312690] came in with a TR-FRET signal of 9.531.
Same read-out and setting: with `Cc1cc(NC(=O)CN2CCN(C)CC2)c2ccccc2n1` [SJ000111680] the figure was 4.647; with `CCN(CC)CCCC(C)Nc1c2ccc(Cl)cc2nc2ccc(OC)cc12` (stereo not drawn) [SJ000285202], −265.7; with `CCCN(CCCNc1c2ccc(Cl)cc2nc2ccc(OC)cc12)Cc1ccc[nH]1` [SJ000520923], −271.
Still for that read-out and setting: under `COc1ccc(CN(CCCCNc2ccnc3cc(Cl)ccc23)Cc2ccccc2)cc1` [SJ000522724] stands 6.683; under `Cc1ccc(S(=O)(=O)c2cnc3ccc(F)cc3c2N2CCN(c3ccc(F)cc3)CC2)cc1` [SJ000117061], −70.5.
Same read-out and setting: with `CCN(CCO)CCCC(C)Nc1ccnc2cc(Cl)ccc12` (stereo not drawn) [SJ000286026] the figure was 3.702.
In turn, `COc1ccc2nc3cc(Cl)ccc3c(NCCCNCc3cccs3)c2c1` [SJ000361088] registered a TR-FRET signal of −453.5.
Compound `CC(Nc1c2ccccc2nc2ccccc12)C(=O)NC(CC(N)=O)C(=O)O` (stereo not drawn) [SJ000016433] came in with a TR-FRET signal of 22.71.
Turning to `CCc1ccc2ncc(C(=O)c3ccccc3)c(N3CCN(CC)CC3)c2c1` [SJ000247281], the TR-FRET signal is −2.261.
The same measure, in the same setting: with `COc1ccc2nc3cc(Cl)ccc3c(NCCCNCc3ccc(Cl)cc3Cl)c2c1` [SJ000522958] the figure was −97.83.
Still for that read-out and setting: under `CCCCN(CCC)CCCNc1c2ccc(Cl)cc2nc2ccc(OC)cc12` [SJ000522971] stands −286.9.
The same measure, in the same setting: with `COc1ccccc1N1CCN(c2c(S(=O)(=O)c3ccc(C)c(C)c3)cnc3ccccc23)CC1` [SJ000117068] the figure was −5.706; with `CCCN(CCCCNc1ccnc2cc(Cl)ccc12)CCCSC` [SJ000311197], 3.903; with `FC(F)(F)Oc1ccc(CN(CCCCNc2ccnc3cc(Cl)ccc23)Cc2ccccc2)cc1` [SJ000520451], 39.87.

The experiment is the same for the next values; noted with them: single point TR-FRET screening of quinoline compounds against MAGE-A11:PCF11; 15 μM.
`CCCN(CCCNc1ccnc2cc(C(F)(F)F)ccc12)Cc1cccc2c1OCO2` [SJ000520472] displayed a TR-FRET signal of 14.62.
Still for that read-out and setting: under `CCCN(CCCNc1ccnc2cc(Cl)ccc12)Cc1cccc(C)c1` [SJ000523041] stands 28.55.
The same measure, in the same setting: under `CCCNCCCNc1ccnc2cc(C(F)(F)F)ccc12` [SJ000361123] stands 12.82; under `Cc1cc(C)cc(Cc2ccc3c(NCCCNCc4ccco4)ccnc3c2)c1` [SJ000311318], 39.31.
Still for that read-out and setting: under `CCCN(CCCNc1ccnc2cc(C(F)(F)F)ccc12)Cc1cc2ccccc2s1` [SJ000520482] stands 13.01; under `COC(=O)CCCCCNCCCNc1ccnc2cc(Cl)ccc12` [SJ000521021], 39.12; under `CN(C)CCCNc1c2ccccc2nc2ccccc12` [SJ000044378], 16.77.
Compound `CCCN(CCCNc1c2ccc(Cl)cc2nc2ccc(OC)cc12)Cc1c(Cl)ccc(Cl)c1Cl` [SJ000523021] returned a TR-FRET signal of 40.
The same measure, in the same setting: under `Clc1ccc2c(NCCCNCc3nccs3)ccnc2c1` [SJ000521023] stands 4.988; under `CCOC(=O)c1cnc2ccc(OC)cc2c1NCCCN1CCOCC1` [SJ000127046], 2.945.
On the same count and under the same terms, under `CCCN(CCCNc1ccnc2cc(Cl)ccc12)Cc1c[nH]c(C)n1` [SJ000522990] stands 4.828; under `CCCCN(CCCNc1ccnc2cc(Cl)ccc12)Cc1ccccc1` [SJ000357579], 19.31.
The same measure, in the same setting: with `Oc1c(F)cc(F)cc1CN(CCCNc1ccnc2cc(Cl)ccc12)Cc1ccccc1` [SJ000357504] the figure was 27.64.
